Measurements published in patent US9802899B2, “Heterocyclic compounds as pesticides” (BAYER CROPSCIENCE AG, priority 2012, dated 2017).

Assay: Determination of the log P values by HPLC (formic acid method)
Format: physicochemical
Settings: reversed-phase column (C 18), acidic range (pH 3.4), 55° C.
Experimental: 1) Description of Method for Determination of the Log P Values (Formic Acid Method)
Eluents for determination in the acidic range (pH 3.4):
Eluent A: acetonitrile+1 ml of formic acid/liter. Eluent B: water+0.9 ml of formic acid/liter.
The lambda max values were determined in the maxima of the chromatographic signals using the UV spectra from 200 nm to 400 nm.

[1] = reversed-phase HPLC column (C 18)

Row | SMILES | log P | further results
1 | O=C(Nc1ccn(-c2c(F)cccc2F)n1)c1ccccc1-n1cncn1 [Compound I-1-89] | 1.66 | –
2 | O=C(Nc1ccn(-c2c(F)cc([N+](=O)[O-])cc2F)n1)c1ccccc1C(F)(F)F [Compound I-1-229, N-[1-(2,6-Difluoro-4-nitrophenyl)-1H-pyrazol-3-yl]-2-(trifluoromethyl)benzamide] | – | chromatographic logP [1]: 2.86
3 | O=C(Nc1ccn(-c2ncc(F)cc2F)n1)c1ccccc1OC(F)(F)F [Compound I-1-463] | 2.77 | –
4 | CC(C)(C)c1ccccc1C(=O)Nc1ccn(-c2ccccc2Cl)n1 [Compound I-1-373] | 3.85 | –
5 | CCOc1cccc(Cl)c1-n1ccc(N)n1 [1-(2-Chloro-6-ethoxyphenyl)-1H-pyrazole-3-amine] | – | chromatographic logP [1]: 2.13
6 | O=C(Nc1cnn(-c2ncc(F)cc2F)n1)c1ccccc1C(F)(F)F [Compound I-2-63, N-[2-(3,5-Difluoropyridin-2-yl)-2H-1,2,3-triazol-4-yl]-2-(trifluoromethyl)benzamide] | – | chromatographic logP [1]: 2.38
7 | O=C(Nc1ccn(-c2ccccc2Cl)n1)c1sccc1C(F)(F)F [Compound I-1-375] | 3.15 | –
8 | O=C(Nc1ccn(-c2ncccn2)n1)c1ccccc1Br [Compound I-1-168] | 1.72 | –
9 | N#Cc1cn(-c2ccccc2Cl)nc1NC(=O)c1ccccc1I [Compound I-1-368] | 2.51 | –
10 | O=C(Nc1ccn(-c2cccnc2Cl)n1)c1ccccc1Cl [Compound I-1-392] | 2.13 | –
11 | O=C(Nc1ccn(-c2cncc(F)n2)n1)c1ccccc1I [Compound I-1-405] | 3.28 | –
12 | CCc1cc(NC(=O)c2ccccc2C(F)(F)F)nn1-c1ccc(F)cc1F [Compound I-1-201] | 4.15 | –
13 | O=C(Nc1ccn(-c2ncc(Cl)cc2Cl)n1)c1cccc(F)c1C(F)(F)F [Compound I-1-434] | 2.61 | –
14 | C=CCN(C(=O)c1ccccc1C(F)(F)F)c1ccn(-c2ncc(F)cc2F)n1 [Compound I-1-469] | 3.38 | –
15 | Cc1nn(C)c(C)c1C(=O)Nc1ccn(-c2ccccc2C(F)(F)F)n1 [Compound I-1-185] | 2.16 | –
16 | O=C(Nc1ccn(-c2c(F)cccc2F)n1)c1cccnc1C(F)(F)F [Compound I-1-93] | 2.68 | –
17 | O=C(Nc1ccn(-c2c(F)cccc2F)n1)c1ccccc1O [Compound I-1-87] | 2.66 | –
18 | Cc1cc(NC(=O)c2cccnc2C(F)(F)F)nn1-c1ccccc1Cl [Compound I-1-349] | 2.13 | –
19 | O=C(Nc1ccn(-c2c(F)cccc2F)n1)c1nccnc1Cl [Compound I-1-100] | 2.15 | –
20 | O=C(Nc1ccn(-c2ccc(Cl)cc2Cl)n1)c1ccccc1Cl [Compound I-1-200] | 3.40 | –
21 | CCc1nnccc1C(=O)Nc1ccn(-c2ncc(F)cc2F)n1 [Compound I-1-505] | 1.50 | –
22 | Cc1cc(NC(=O)c2cnccc2C(F)(F)F)nn1-c1ccccc1Cl [Compound I-1-380] | 2.09 | –
23 | O=C(Nc1ccn(-c2ncc(F)cc2F)n1)c1ccccc1[N+](=O)[O-] [Compound I-1-147] | 2.00 | –
24 | Cc1c([N+](=O)[O-])c(C(=O)Nc2ccn(-c3c(F)cccc3F)n2)nn1C [Compound I-1-234] | 2.03 | –
25 | O=C(Nc1ccn(-c2c(F)cccc2F)n1)c1sccc1I [Compound I-1-104] | 2.96 | –
26 | CCc1nn(C)c(C(=O)Nc2ccn(-c3c(F)cccc3F)n2)c1Cl [Compound I-1-316] | 3.24 | –

Row | SMILES | log P | further results
27 | O=C(Nc1ccn(-c2ncc(F)cc2F)n1)c1ccccc1Cl [Compound I-1-143] | 2.32 | –
28 | O=C(Nc1ccn(-c2nccc(-c3ccc(F)cc3)c2F)n1)c1ccccc1C(F)(F)F [Compound I-1-640, N-{1-[3-Fluoro-4-(4-fluorophenyl)pyridin-2-yl]-1H-pyrazol-3-yl}-2-(trifluoromethyl)benzamide] | – | chromatographic logP [1]: 3.4
29 | Cc1cccnc1C(=O)Nc1ccn(-c2ccccc2Br)n1 [Compound I-1-336] | 1.44 | –
30 | Cn1nc([N+](=O)[O-])c(Cl)c1C(=O)Nc1ccn(-c2c(F)cccc2F)n1 [Compound I-1-312] | 2.70 | –
31 | Cc1ccccc1C(=O)Nc1ccn(-c2c(F)cccc2F)n1 [Compound I-1-73] | 2.60 | –
32 | O=C(Nc1ccn(-c2ccc(F)cc2F)n1)c1ccccc1Br [Compound I-1-209] | 2.95 | –
33 | Cc1noc(C(F)(F)F)c1C(=O)Nc1ccn(-c2c(F)cccc2F)n1 [Compound I-1-291] | 2.80 | –
34 | O=C(Nc1ccn(-c2c(F)cccc2F)n1)c1c(F)cccc1Cl [Compound I-1-85] | 2.60 | –
35 | O=C(Nc1ccn(-c2ncc(F)cc2F)n1)c1nccnc1C(F)(F)F [Compound I-1-501] | 2.20 | –
36 | Cc1c(F)cnc(F)c1-n1ccc(NC(=O)c2ccccc2C(F)(F)F)n1 [Compound I-1-217] | 3.06 | –
37 | CCc1ccccc1C(=O)Nc1ccn(-c2ccccc2Cl)n1 [Compound I-1-12] | 3.30 | –
38 | Nc1cc(F)c(-n2ccc(NC(=O)c3ccccc3C(=O)O)n2)c(F)c1 [Compound I-1-643, 2-{[1-(4-Amino-2,6-difluorophenyl)-1H-pyrazol-3-yl]carbamoyl}benzoic acid] | – | chromatographic logP [1]: 1.38
39 | Nc1ccn(-c2cccnc2Cl)n1 [1-(2-Chloropyridin-3-yl)-1H-pyrazole-3-amine] | – | chromatographic logP [1]: 0.62
40 | Cc1nn(C)c(F)c1C(=O)Nc1ccn(-c2c(F)cccc2F)n1 [Compound I-1-110] | 1.98 | –
41 | Cn1nc(C(F)F)c(C(=O)Nc2ccn(-c3ccccc3Br)n2)c1F [Compound I-1-58] | 2.63 | –
42 | O=C(c1ccccc1C(F)(F)F)N(CC(F)F)c1ccn(-c2c(F)cccc2F)n1 [Compound I-1-264] | 3.38 | –
43 | CCCn1cc(Cl)c(C(=O)Nc2ccn(-c3c(F)cccc3F)n2)n1 [Compound I-1-315] | 3.05 | –
44 | O=C(Nc1ccn(-c2ccccc2Cl)n1)c1nccnc1C(F)(F)F [Compound I-1-44] | 2.74 | –
45 | O=C(Nc1ccn(-c2cc(F)ccc2F)n1)c1cccnc1C(F)(F)F [Compound I-1-70] | 2.60 | –
46 | CC(=O)NC1=NN(c2c(F)cccc2F)CC1 [N-[1-(2,6-Difluorophenyl)-4,5-dihydro-1H-pyrazol-3-yl]acetamide] | – | chromatographic logP: 1.46
47 | Cn1nc(C(F)(F)F)c(C(=O)Nc2ccn(-c3ncc(F)cc3F)n2)c1C(F)(F)F [Compound I-1-451] | 2.79 | –
48 | O=C(Nc1nn(-c2ncc(F)cc2F)c2ccc(F)cc12)c1ccccc1C(F)(F)F [Compound I-5-2, N-[1-(3,5-Difluoropyridin-2-yl)-5-fluoro-1H-indazol-3-yl]-2-(trifluoromethyl)benzamide] | – | chromatographic logP [1]: 3.37
49 | O=[N+]([O-])c1ccn(-c2c(F)cccc2F)c1 [Ex. 46-II, 1-(2,6-Difluorophenyl)-3-nitro-M-pyrrole] | 2.58 | –
50 | Cc1nn(C)c(C(=O)Nc2ccn(-c3ncc(F)cc3F)n2)c1Br [Compound I-1-517] | 2.53 | –
51 | O=C(Nc1ccn(-c2ccccc2Cl)n1)c1sccc1I [Compound I-1-379] | 3.34 | –
52 | N#Cc1cncnc1-n1ccc(N)n1 [4-(3-Amino-1H-pyrazol-1-yl)pyrimidine-5-carbonitrile] | – | chromatographic logP [1]: 0.59

Further lines, with some results ahead:

Row | log P | SMILES | further results
53 | 2.34 | N#Cc1cncnc1-n1ccc(NC(=O)c2ccccc2C(F)(F)F)n1 [Compound I-1-594] | –
54 | 1.95 | N#Cc1c(F)cccc1-n1ccc(NC(=O)c2cccnc2Cl)n1 [Compound I-1-622] | –
55 | 2.39 | O=C(Nc1cnn(-c2ncc(F)cc2F)n1)c1ccccc1I [Compound I-2-73] | –
56 | 2.42 | CCn1ncc(Cl)c1C(=O)Nc1ccn(-c2ncc(F)cc2F)n1 [Compound I-1-526] | –
57 | 1.71 | O=C(Nc1cnn(-c2ncc(F)cc2F)n1)c1cccnc1Br [Compound I-2-69] | –
58 | 2.33 | O=C(Nc1ccn(-c2ncccc2F)n1)c1cccnc1OC(F)(F)F [Compound I-1-577] | –
59 | 3.28 | CC(C)Cn1ncc(I)c1C(=O)Nc1ccn(-c2ncc(F)cc2F)n1 [Compound I-1-539] | –
60 | 3.22 | O=C(Nc1nn(-c2ccccc2Br)nc1Cl)c1ccccc1C(F)(F)F [Compound I-2-26] | –
61 | 2.37 | O=C(NC1=NN(c2ccccc2Cl)CC1)c1ccccc1Br [Compound I-4-8] | –
62 | 2.48 | O=C(Nc1cnn(-c2ncccc2Cl)n1)c1c(F)cccc1C(F)(F)F [Compound I-2-57] | –
63 | 3.98 | O=C(Nc1nn(-c2ncc(C(F)(F)F)cc2Cl)c2ccccc12)c1ccccc1Br [Compound I-5-5] | –
64 | 3.24 | O=C(Nc1nn(-c2ccccc2Br)nc1Cl)c1ccccc1I [Compound I-2-32] | –
65 | 2.40 | O=C(Nc1cnn(-c2c(F)cccc2F)n1)c1cccnc1C(F)(F)F [Compound I-2-76] | –
66 | 1.95 | O=C(Nc1cnn(-c2ncccc2Cl)n1)c1cccnc1C(F)(F)F [Compound I-2-55] | –
67 | 1.49 | O=C(Nc1cnn(-c2ncccc2F)n1)c1cccnc1Br [Compound I-2-47] | –
68 | 2.55 | N#Cc1cc(F)ccc1-n1ccc(NC(=O)c2ccccc2Br)n1 [Compound I-1-629] | –
69 | 2.13 | O=C(Nc1ccn(-c2ncccc2Br)n1)c1c(F)cccc1F [Compound I-1-551] | –
70 | 2.09 | O=C(Nc1cnn(-c2ncccc2Cl)n1)c1c(F)cccc1F [Compound I-2-15] | –
71 | 3.11 | O=C(Nc1nn(-c2ccccc2Cl)c2ccccc12)c1cccnc1C(F)(F)F [Compound I-5-9] | –
72 | 2.71 | O=C(Nc1cnn(-c2c(F)cccc2F)n1)c1ccccc1Br [Compound I-2-36] | –
73 | 2.59 | O=C(Nc1cnn(-c2c(F)cccc2F)n1)c1c(F)cccc1F [Compound I-2-77] | –
74 | 2.22 | Cn1cc(C(=O)Nc2cnn(-c3c(F)cccc3F)n2)c(C(F)F)n1 [Compound I-2-78] | –
75 | 2.93 | CCn1nc(C)c(Cl)c1C(=O)Nc1ccn(-c2ncc(F)cc2F)n1 [Compound I-1-527] | –
76 | 1.73 | O=C(Nc1ccn(-c2ncc(F)cn2)n1)c1cccnc1C(F)(F)F [Compound I-1-601] | –
